According to patent publication US12378224B2 (Dong-A Socio Holdings Co., Ltd., priority 2016, dated 2025):

Target: human MER (528-end) (Homo sapiens (Human), UniProt Q12866)
Assay: HTRF Kinase Activity Biochemical Assay (KinEASE-TK)
Details: 10 uM ATP
How it was run: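 Activity read-out is the HTRF ratio (665 nm over 620 nm emission, ×10,000; excitation 340 nm) after 1 h detection with 0.375 nM Eu3+-cryptate anti-TK antibody plus 0.062 uM SA-XL665. Preceding kinase step: human MER (528-end), biotinylated TK substrate, 1 h, room temperature.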

human MER (528-end), sequence (Q12866 528-999 limits assumed): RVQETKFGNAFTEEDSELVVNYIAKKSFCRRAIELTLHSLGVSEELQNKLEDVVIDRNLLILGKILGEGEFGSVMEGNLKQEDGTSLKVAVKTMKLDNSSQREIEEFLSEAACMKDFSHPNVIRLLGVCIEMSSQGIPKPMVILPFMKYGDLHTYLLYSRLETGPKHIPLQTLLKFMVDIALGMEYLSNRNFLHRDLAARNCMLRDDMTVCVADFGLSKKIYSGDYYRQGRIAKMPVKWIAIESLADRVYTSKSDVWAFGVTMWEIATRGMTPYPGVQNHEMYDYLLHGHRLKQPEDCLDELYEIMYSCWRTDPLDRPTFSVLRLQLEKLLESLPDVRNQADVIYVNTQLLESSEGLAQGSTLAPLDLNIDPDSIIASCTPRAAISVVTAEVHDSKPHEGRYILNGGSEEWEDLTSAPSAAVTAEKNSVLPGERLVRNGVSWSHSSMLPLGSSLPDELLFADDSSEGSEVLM

SMILES	IC50 [nM]
CN1CCN(Cc2cccc(-c3cccc(NC(=O)N4CC[C@@H](NC(=O)c5cc(-c6cnn(C)c6)cnc5N)C4)c3)c2)CC1 [Example 267, (R)-2-amino-5-(1-methyl-1H-pyrazol-4-yl)-N-(1-((3′-((4-methylpiperazin-1-yl)methyl)-[1,1′-biphenyl]-3-yl)carbamoyl)pyrrolidin-3-yl)nicotinamide]	> 1000
Cn1cc(-c2cnc(N)c(C(=O)N[C@@H]3CCN(C(=O)Oc4ccccc4O)C3)c2)cn1 [Example 98, 2-hydroxyphenyl (R)-3-(2-amino-5-(1-methyl-1H-pyrazol-4-yl)nicotinamido)pyrrolidine-1-carboxylate]	> 1000
Cn1cc(-c2cnc(N)c(C(=O)N[C@@H]3CCN(Cc4ccccc4-c4ccccc4)C3)c2)cn1 [Example 225, (R)—N-(1-([1,1′-biphenyl]-2-ylmethyl)pyrrolidin-3-yl)-2-amino-5-(1-methyl-1H-pyrazol-4-yl)nicotinamide]	100 to 1000
Cn1cc(-c2cnc(N)c(C(=O)N[C@@H]3CCN(C(=O)Nc4cccc(-c5ccc(N)cc5)c4)C3)c2)cn1 [Example 258, (R)-2-amino-N-(1-((4′-amino-[1,1′-biphenyl]-3-yl)carbamoyl)pyrrolidin-3-yl)-5-(1-methyl-1H-pyrazol-4-yl)nicotinamide]	100 to 1000
CN1CCN(Cc2ccc(-c3ccc4cc(OC(=O)N5CC[C@@H](NC(=O)c6cc(-c7cnn(C)c7)cnc6N)C5)ccc4c3)cc2)CC1 [Example 293, 6-(4-((4-methylpiperazin-1-yl)methyl)phenyl)naphthalen-2-yl (R)-3-(2-amino-5-(1-methyl-1H-pyrazol-4-yl)nicotinamido)pyrrolidine-1-carboxylate]	100 to 1000
Cn1cc(-c2cnc(N)c(C(=O)N[C@@H]3CCN(C(=O)Oc4cccc5ccccc45)C3)c2)cn1 [Example 68, naphthalen-1-yl (R)-3-(2-amino-5-(1-methyl-1H-pyrazol-4-yl)nicotinamido)pyrrolidine-1-carboxylate]	> 1000
COc1ccc(O)c(CN2CC[C@@H](NC(=O)c3cc(-c4cnn(C)c4)cnc3N)C2)c1 [Example 219, (R)-2-amino-N-(1-(2-hydroxy-5-methoxybenzyl)pyrrolidin-3-yl)-5-(1-methyl-1H-pyrazol-4-yl)nicotinamide]	> 1000
Cn1cc(-c2cnc(N)c(C(=O)N[C@@H]3CCN(C(=O)c4ccc(/C=C/c5ccccn5)cc4)C3)c2)cn1 [Example 825, (R,E)-2-amino-5-(1-methyl-1H-pyrazol-4-yl)—N-(1-(4-(2-(pyridin-2-yl)vinyl)benzoyl)pyrrolidin-3-yl)nicotinamide]	100 to 1000
COC(=O)[C@H]1C[C@@H](NC(=O)c2cc(-c3cnn(C)c3)cnc2N)CN1C(=O)c1ccc(-c2ccccc2)cc1 [Example 683, methyl (2R,4R)-1-([1,1′-biphenyl]-4-carbonyl)-4-(2-amino-5-(1-methyl-1H-pyrazol-4-yl)nicotinamido)pyrrolidine-2-carboxylate]	100 to 1000
Cn1cc(-c2cnc(N)c(C(=O)N[C@@H]3CCN(C(=O)Oc4cc(Cl)ccc4Cl)C3)c2)cn1 [Example 61, 2,5-dichlorophenyl (R)-3-(2-amino-5-(1-methyl-1H-pyrazol-4-yl)nicotinamido)pyrrolidine-1-carboxylate]	> 1000
Cn1cc(-c2cnc(N)c(C(=O)N[C@@H]3CCN(C(=O)Nc4ccccc4Cl)C3)c2)cn1 [Example 21, (R)-2-amino-N-(1-((2-chlorophenyl)carbamoyl)pyrrolidin-3-yl)-5-(1-methyl-1H-pyrazol-4-yl)nicotinamide]	> 1000
Cn1cc(-c2cnc(N)c(C(=O)N[C@@H]3CCN(Cc4ccc(F)c(-c5cccc(CO)c5)c4)C3)c2)cn1 [Example 250, (R)-2-amino-N-(1-((6-fluoro-3′-(hydroxymethyl)-[1,1′-biphenyl]-3-yl)methyl)pyrrolidin-3-yl)-5-(1-methyl-1H-pyrazol-4-yl)nicotinamide]	100 to 1000
Cn1cc(-c2cnc(N)c(C(=O)N[C@@H]3CCN(C(=O)c4ccc(-c5ccc(N)cc5)cc4)C3)c2)cn1 [Example 662, (R)-2-amino-N-(1-(4′-amino-[1,1′-biphenyl]-4-carbonyl)pyrrolidin-3-yl)-5-(1-methyl-1H-pyrazol-4-yl)nicotinamide]	> 1000
Cn1cc(-c2cnc(N)c(C(=O)N[C@@H]3CCN(C(=O)c4nc(-c5ccccc5)oc4C(F)(F)F)C3)c2)cn1 [Example 458, (R)-2-amino-5-(1-methyl-1H-pyrazol-4-yl)-N-(1-(2-phenyl-5-(trifluoromethyl)oxazole-4-carbonyl)pyrrolidin-3-yl)nicotinamide]	> 1000
C/C(=C\c1ccc(C(=O)N2CC[C@@H](NC(=O)c3cc(-c4cnn(C)c4)cnc3N)C2)cc1)c1ccccc1 [Example 826, (R,E)-2-amino-5-(1-methyl-1H-pyrazol-4-yl)-N-(1-(4-(2-phenylprop-1-en-1-yl)benzoyl)pyrrolidin-3-yl)nicotinamide]	> 1000
Cn1cc(-c2cnc(N)c(C(=O)N[C@@H]3CCN(C(=O)c4ccc(-c5cc(F)ccc5Cl)cc4Cl)C3)c2)cn1 [Example 693, (R)-2-amino-N-(1-(2′,3-dichloro-5′-fluoro-[1,1′-biphenyl]-4-carbonyl)pyrrolidin-3-yl)-5-(1-methyl-1H-pyrazol-4-yl)nicotinamide]	> 1000

SMILES	IC50 [nM]
COc1ccccc1CC(=O)N1CC[C@@H](NC(=O)c2cc(-c3cnn(C)c3)cnc2N)C1 [Example 436, (R)-2-amino-N-(1-(2-(2-methoxyphenyl)acetyl)pyrrolidin-3-yl)-5-(1-methyl-1H-pyrazol-4-yl)nicotinamide]	> 1000
Cn1cc(-c2cnc(N)c(C(=O)N[C@@H]3CCN(Cc4ccc(F)c(Br)c4)C3)c2)cn1 [Example 233, (R)-2-amino-N-(1-(3-bromo-4-fluorobenzyl)pyrrolidin-3-yl)-5-(1-methyl-1H-pyrazol-4-yl)nicotinamide]	> 1000
Cn1cc(-c2cnc(N)c(C(=O)N[C@@H]3CCN(C(=O)Oc4ccc(Oc5ccc(N)cc5)cc4)C3)c2)cn1 [Example 112, 4-(4-aminophenoxy)phenyl (R)-3-(2-amino-5-(1-methyl-1H-pyrazol-4-yl)nicotinamido)pyrrolidine-1-carboxylate]	100 to 1000
Cn1cc(-c2cnc(N)c(C(=O)N[C@@H]3CCN(C(=O)Oc4ccc(N)c(Cl)c4)C3)c2)cn1 [Example 89, 4-amino-3-chlorophenyl (R)-3-(2-amino-5-(1-methyl-1H-pyrazol-4-yl)nicotinamido)pyrrolidine-1-carboxylate]	> 1000
Cn1cc(-c2cnc(N)c(C(=O)N[C@@H]3CCN(C(=O)c4ccc(CN5CCN(CCO)CC5)cc4)C3)c2)cn1 [Example 641, (R)-2-amino-N-(1-(4-((4-(2-hydroxyethyl)piperazin-1-yl)methyl)benzoyl)pyrrolidin-3-yl)-5-(1-methyl-1H-pyrazol-4-yl)nicotinamide]	> 1000
Cn1cc(-c2cnc(N)c(C(=O)N[C@@H]3CCN(C(=O)Oc4ccc5ccc(OCCO)cc5c4)C3)c2)cn1 [Example 299, 7-(2-hydroxyethoxy)naphthalen-2-yl (R)-3-(2-amino-5-(1-methyl-1H-pyrazol-4-yl)nicotinamido)pyrrolidine-1-carboxylate]	100 to 1000
Cn1cc(-c2cnc(N)c(C(=O)N[C@@H]3CCN(C(=O)c4ccc(F)cc4Cl)C3)c2)cn1 [Example 716, (R)-2-amino-N-(1-(2-chloro-4-fluorobenzoyl)pyrrolidin-3-yl)-5-(1-methyl-1H-pyrazol-4-yl)nicotinamide]	> 1000
Cn1cc(-c2cnc(N)c(C(=O)N[C@@H]3CCN(C(=O)Nc4cccc(-c5ccc(CN)cc5)c4)C3)c2)cn1 [Example 255, (R)-2-amino-N-(1-((4′-(aminomethyl)-[1,1′-biphenyl]-3-yl)carbamoyl)pyrrolidin-3-yl)-5-(1-methyl-1H-pyrazol-4-yl)nicotinamide]	100 to 1000
Cn1cc(-c2cnc(N)c(C(=O)N[C@@H]3CCN(C(=O)Oc4ccc5ncccc5c4)C3)c2)cn1 [Example 72, quinolin-6-yl (R)-3-(2-amino-5-(1-methyl-1H-pyrazol-4-yl)nicotinamido)pyrrolidine-1-carboxylate]	> 1000
Cn1cc(-c2cnc(N)c(C(=O)N[C@@H]3CCN(C(=O)c4ccc(-c5ccccc5CO)cc4)C3)c2)cn1 [Example 349, (R)-2-amino-N-(1-(2′-(hydroxymethyl)-[1,1′-biphenyl]-4-carbonyl)pyrrolidin-3-yl)-5-(1-methyl-1H-pyrazol-4-yl)nicotinamide]	100 to 1000
COc1ccc(Oc2ccc(-c3ccc(C(=O)N4CC[C@@H](NC(=O)c5cc(-c6cnn(C)c6)cnc5N)C4)cc3)cc2)cc1 [Example 528, (R)-2-amino-N-(1-(4′-(4-methoxyphenoxy)-[1,1′-biphenyl]-4-carbonyl)pyrrolidin-3-yl)-5-(1-methyl-1H-pyrazol-4-yl)nicotinamide]	> 1000
Cc1ccc(C)c(CN2CC[C@@H](NC(=O)c3cc(-c4cnn(C5CCNCC5)c4)cnc3N)C2)c1 [Example 166, (R)-2-amino-N-(1-(2,5-dimethylbenzyl)pyrrolidin-3-yl)-5-(1-(piperidin-4-yl)-1H-pyrazol-4-yl)nicotinamide]	> 1000
Cc1nn(C)c(C)c1-c1ccc(C(=O)N2CC[C@@H](NC(=O)c3cc(-c4cnn(C)c4)cnc3N)C2)cc1 [Example 507, (R)-2-amino-5-(1-methyl-1H-pyrazol-4-yl)-N-(1-(4-(1,3,5-trimethyl-1H-pyrazol-4-yl)benzoyl)pyrrolidin-3-yl)nicotinamide]	100 to 1000
Cc1nc(C)c(CN2CC[C@@H](NC(=O)c3cc(-c4cnn(C5CCNCC5)c4)cnc3N)C2)s1 [Example 163, (R)-2-amino-N-(1-((2,4-dimethylthiazol-5-yl)methyl)pyrrolidin-3-yl)-5-(1-(piperidin-4-yl)-1H-pyrazol-4-yl)nicotinamide]	> 1000
Nc1ncc(-c2ccc(C(=O)N3CCOCC3)cc2)cc1C(=O)N[C@@H]1CCN(C(=O)Oc2cccc(-c3ccccc3)c2)C1 [Example 83, [1,1′-biphenyl]-3-yl (R)-3-(2-amino-5-(4-(morpholine-4-carbonyl)phenyl)nicotinamido)pyrrolidine-1-carboxylate]	100 to 1000
